Consider 14 compounds from PubChem BioAssay AID248 (DTP/NCI, 2004).

Values joined by “and” are separate entries in the source; they are usually repeats but may differ in a detail not shown here. Equal entries are not always repeated. Inconclusive results and toxic doses are left out.

The test has as its system L1210 leukemia ip in BDF1 mice, survival T/C. As to the kind of experiment: NCI In Vivo Anticancer Drug Screen. Data for tumor model L1210 Leukemia (intraperitoneal) in B6D2F1 (BDF1) mice. The following applies: endpoint: mean survival time, higher = longer survival. An outline of the steps:
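Survival endpoint. Drug-treated group vs vehicle group, expressed as T divided by C. Tumor passaged by transplantation.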

Where [1] appears, read: dose: 100.0 mg/kg/injection, schedule: Q01DX001 (ip), vehicle: saline.
Setting [2] is: dose: 200.0 mg/kg/injection, schedule: Q01DX001 (ip), vehicle: saline.
The mark [3] stands for this setting: dose: 400.0 mg/kg/injection, schedule: Q01DX001 (ip), vehicle: saline.
[4] abbreviates: dose: 50.0 mg/kg/injection, schedule: Q01DX009 (ip), vehicle: saline with Tween-80.
Setting [5] is: dose: 100.0 mg/kg/injection, schedule: Q01DX009 (ip), vehicle: saline with Tween-80.
Where [6] appears, read: dose: 100.0 mg/kg/injection, schedule: Q04DX003 (ip), vehicle: saline with Tween-80.
Where [7] appears, read: dose: 200.0 mg/kg/injection, schedule: Q01DX009 (ip), vehicle: saline with Tween-80.
Where [8] appears, read: dose: 200.0 mg/kg/injection, schedule: Q04DX003 (ip), vehicle: saline with Tween-80.
[9] abbreviates: dose: 400.0 mg/kg/injection, schedule: Q01DX009 (ip), vehicle: saline with Tween-80.
The mark [10] stands for this setting: dose: 400.0 mg/kg/injection, schedule: Q04DX003 (ip), vehicle: saline with Tween-80.

Consider `CCCCCCCC/C=C\CCCCCCCC(=O)NCCOC`, for which the T/C is 97 % of control (dose: 37.5 mg/kg/injection, schedule: Q01DX009 (ip), vehicle: saline); 92 % of control (dose: 75.0 mg/kg/injection, schedule: Q01DX009 (ip), vehicle: saline); 90 % of control (dose: 75.0 mg/kg/injection, schedule: Q04DX003 (ip), vehicle: saline); 99 % of control (dose: 150.0 mg/kg/injection, schedule: Q01DX009 (ip), vehicle: saline); 98 % of control (dose: 150.0 mg/kg/injection, schedule: Q04DX003 (ip), vehicle: saline); 88 % of control (dose: 300.0 mg/kg/injection, schedule: Q04DX003 (ip), vehicle: saline).
Turning to `Nc1nc(N)c2nc(CNc3ccc(C(=O)NC(CCC(=O)O)C(=O)O)nc3)cnc2n1` (stereo unspecified), the T/C is 169 % of control (dose: 0.44 mg/kg/injection, schedule: Q01DX009 (ip), vehicle: Klucel (hydroxypropylcellulose) (HPC)); 168 % of control (dose: 0.66 mg/kg/injection, schedule: Q01DX009 (ip), vehicle: Klucel (hydroxypropylcellulose) (HPC)); 119 % of control (dose: 75.0 micrograms/kg/injection, schedule: Q01DX009 (ip), vehicle: Klucel (hydroxypropylcellulose) (HPC)); 150 % of control (dose: 100.0 micrograms/kg/injection, schedule: Q01DX009 (ip), vehicle: Klucel (hydroxypropylcellulose) (HPC)); 156 % of control and 160 % of control (dose: 150.0 micrograms/kg/injection, schedule: Q01DX009 (ip), vehicle: Klucel (hydroxypropylcellulose) (HPC)); 161 % of control (dose: 220.0 micrograms/kg/injection, schedule: Q01DX009 (ip), vehicle: Klucel (hydroxypropylcellulose) (HPC)). For the same compound, the T/C (dose: 600.0 micrograms/kg/injection, schedule: Q01DX009 (ip), vehicle: Klucel (hydroxypropylcellulose) (HPC)) is 102 % of control.
Take `CC(C)C(Sc1nc(N)nc2nc[nH]c12)C(=O)O` (stereo unspecified): the T/C runs as follows: under setting [1], 98 % of control; (dose: 100.0 mg/kg/injection, schedule: Q01DX009 (ip), vehicle: saline sonified) 94 % of control; (dose: 100.0 mg/kg/injection, schedule: Q04DX003 (ip), vehicle: Klucel (hydroxypropylcellulose) (HPC)) 96 % of control; under setting [2], 96 % of control; (dose: 200.0 mg/kg/injection, schedule: Q01DX009 (ip), vehicle: saline sonified) 106 % of control; (dose: 200.0 mg/kg/injection, schedule: Q04DX003 (ip), vehicle: Klucel (hydroxypropylcellulose) (HPC)) 100 % of control. Besides, the T/C by setting is: under setting [3], 102 % of control; (dose: 400.0 mg/kg/injection, schedule: Q01DX009 (ip), vehicle: saline sonified) 100 % of control; (dose: 400.0 mg/kg/injection, schedule: Q04DX003 (ip), vehicle: Klucel (hydroxypropylcellulose) (HPC)) 98 % of control.
Regarding `CCCCCCCCCCCCCC[N+]1(C)CCS(=O)CC1` (stereo unspecified), the T/C (dose: 25.0 mg/kg/injection, schedule: Q01DX001 (ip), vehicle: saline) is 102 % of control; the T/C (dose: 50.0 mg/kg/injection, schedule: Q01DX001 (ip), vehicle: saline) was 107 % of control; the T/C under setting [1] is 102 % of control.
Take `CC(=O)Nc1ccc(S(=O)(=O)Nc2ccc([N+](=O)[O-])cc2)cc1`: the T/C reads like this: (dose: 25.0 mg/kg/injection, schedule: Q01DX009 (ip), vehicle: saline with Tween-80) 96 % of control; under setting [4], 100 % of control; under setting [5], 98 % of control and 87 % of control; under setting [6], 109 % of control; under setting [7], 95 % of control and 94 % of control; under setting [8], 109 % of control. Moreover, the T/C was 97 % of control and 94 % of control under setting [9]; 109 % of control under setting [10].
In the case of `O=C(O)c1cc(C(=O)Nc2cccc3ccccc23)c(C(=O)O)cc1C(=O)Nc1cccc2ccccc12`, the T/C under setting [5] was 96 % of control and 87 % of control; the T/C (dose: 100.0 mg/kg/injection, schedule: Q04DX002 (ip), vehicle: saline with Tween-80) is 104 % of control and 116 % of control; the T/C under setting [6] is 100 % of control; the T/C under setting [7] is 97 % of control and 91 % of control; the T/C (dose: 200.0 mg/kg/injection, schedule: Q04DX002 (ip), vehicle: saline with Tween-80) is 94 % of control and 103 % of control; the T/C under setting [8] was 105 % of control. Further, the T/C runs as follows: under setting [9], 100 % of control and 92 % of control; (dose: 400.0 mg/kg/injection, schedule: Q04DX002 (ip), vehicle: saline with Tween-80) 93 % of control and 89 % of control; under setting [10], 98 % of control.
Turning to `O=S(=O)(OC1CCCC1Cl)c1ccc(Br)cc1` (stereo unspecified), the T/C runs as follows: under setting [4], 93 % of control; under setting [5], 93 % of control; under setting [7], 86 % of control.
For `CCc1ccc(NC(=O)c2cc(OC)c(OC)c(OC)c2)cc1`, the T/C (dose: 100.0 mg/kg/injection, schedule: Q01DX009 (ip), vehicle: Klucel (hydroxypropylcellulose) (HPC)) was 100 % of control; the T/C (dose: 200.0 mg/kg/injection, schedule: Q01DX009 (ip), vehicle: Klucel (hydroxypropylcellulose) (HPC)) is 97 % of control; the T/C (dose: 400.0 mg/kg/injection, schedule: Q01DX009 (ip), vehicle: Klucel (hydroxypropylcellulose) (HPC)) was 101 % of control.
`COc1ccc2nc3cc(Cl)ccc3c(NCCCCCN3CCCCC3)c2c1`: the T/C is, setting by setting: (dose: 5.0 mg/kg/injection, schedule: Q01DX001 (ip), vehicle: saline) 97 % of control; (dose: 10.0 mg/kg/injection, schedule: Q01DX001 (ip), vehicle: saline) 97 % of control; (dose: 20.0 mg/kg/injection, schedule: Q01DX001 (ip), vehicle: saline) 101 % of control; (dose: 40.0 mg/kg/injection, schedule: Q01DX001 (ip), vehicle: saline) 106 % of control; (dose: 80.0 mg/kg/injection, schedule: Q01DX001 (ip), vehicle: saline) 100 % of control; under setting [2], 94 % of control.
As to `O=C(O)/C=C/C(=O)Nc1ccc2c(c1)Cc1cc(NC(=O)C(F)(F)F)ccc1-2`, the T/C runs as follows: (dose: 25.0 mg/kg/injection, schedule: Q01DX009 (ip), vehicle: saline) 105 % of control; (dose: 25.0 mg/kg/injection, schedule: Q04DX003 (ip), vehicle: saline) 102 % of control; (dose: 50.0 mg/kg/injection, schedule: Q01DX009 (ip), vehicle: saline) 101 % of control; (dose: 50.0 mg/kg/injection, schedule: Q04DX003 (ip), vehicle: saline) 96 % of control; under setting [1], 90 % of control; (dose: 100.0 mg/kg/injection, schedule: Q01DX009 (ip), vehicle: saline) 100 % of control. The T/C by setting is: (dose: 100.0 mg/kg/injection, schedule: Q04DX003 (ip), vehicle: saline) 98 % of control; under setting [2], 90 % of control.
With `NS(=O)(=O)CCCCCCN1C(=O)c2ccccc2C1=O`, the T/C by setting is: under setting [6], 91 % of control; under setting [8], 93 % of control; under setting [10], 93 % of control.
Regarding `O=c1[nH]cccc1CC(O)(c1ccccc1)c1ccccc1`, the T/C under setting [1] is 101 % of control, the T/C under setting [2] was 103 % of control and the T/C under setting [3] was 100 % of control.
For the compound `CC(C)OC(=S)SSc1nc2ccccc2s1`, the T/C reads like this: under setting [4], 103 % of control; under setting [5], 92 % of control; under setting [6], 90 % of control; under setting [7], 96 % of control; under setting [8], 96 % of control.
As to `CS(=O)(=O)Nc1ccccc1OS(C)(=O)=O`, the T/C (dose: 75.0 mg/kg/injection, schedule: Q01DX001 (ip), vehicle: saline) was 102 % of control; the T/C (dose: 150.0 mg/kg/injection, schedule: Q01DX001 (ip), vehicle: saline) is 106 % of control; the T/C (dose: 300.0 mg/kg/injection, schedule: Q01DX001 (ip), vehicle: saline) is 106 % of control.
